The test system of series [1] is Plasmodium falciparum. Kind of series: Antiplasmodial activity against chloroquine-sensitive Plasmodium falciparum 3D7 erythrocytic stage measured after 3 days by HRP2 assay. Type of series: functional, organism-based. The conditions noted are these: 3D7, 72 h.
The next series deals with HepG2. Kind of series: Cytotoxicity against human HepG2 cells measured after 24 hrs by neutral red assay. The class given is cell-based. The conditions noted are these: HepG2, 24 h.
Series [2] in a line: Selectivity index, ratio of IC50 for human HepG2 cells to IC50 for Plasmodium falciparum 3D7. Type of series: toxicity. The conditions noted are these: read-out: Ratio IC50.
Series [3] deals with Plasmodium falciparum. Nature of the series: Antiplasmodial activity against chloroquine-resistant Plasmodium falciparum Dd2 erythrocytic stage measured after 3 days by HRP2 assay. Type of series: functional, organism-based. The conditions noted are these: Dd2, 72 h.
The subject of another series is Plasmodium berghei. Nature of the series: Antiplasmodial activity against liver stage luciferase expressing Plasmodium berghei sporozoites infected in human Huh7 cells preincubated with host cells for 1 hr followed by plasmodium infection by bioluminescence assay. The class given is functional, organism-based. The conditions noted are these: Huh-7.

For orientation: IC50 means the concentration at which inhibition is half-maximal. The low end stands for greater potency in that assay, the high end for weaker potency in that assay.

Bounds are passed on as bounds.

In the case of `Cc1nccc2c1[nH]c1cc(OCc3cn(C/C=C/c4ccc(F)cc4)nn3)ccc12`, the figures for the IC50 in the series with Plasmodium falciparum [1], with HepG2 and with Plasmodium falciparum [3] were 200 nM, 2190 nM and 840 nM, respectively. The selectivity ratio in series [2] came out at 11.
Taken in the same sequence, the figures for `Cc1nccc2c3ccc(OCc4cn(C/C=C/c5ccc(Cl)cc5)nn4)cc3n(Cc3cn(C/C=C/c4ccc(Cl)cc4)nn3)c12` were 250 nM, 29000 nM, 3280 nM and 116.
On the same counts, the results for `COc1ccc2c3ccnc(C)c3n(Cc3cn(C/C=C/c4ccc5c(c4)OCO5)nn3)c2c1` are 500 nM, 8780 nM, 1570 nM and 18.
On the same counts, the results for `C/C(=C\c1ccccc1)Cn1cc(COc2ccc3c4ccnc(C)c4n(Cc4cn(C/C(C)=C/c5ccccc5)nn4)c3c2)nn1` are 1340 nM, 25000 nM, 4020 nM and 19.
As to `C/C(=C\c1ccccc1)Cn1cc(COc2ccc3c(c2)[nH]c2c(C)nccc23)nn1`, the IC50 in the series with Plasmodium falciparum [1] came out at 330 nM; with HepG2 it was 25300 nM; in the series with Plasmodium berghei, 660 nM; in the series on Plasmodium falciparum [3] it was 3060 nM. For the same molecule, the selectivity ratio in series [2] came to 77.
Take `Cc1nccc2c1[nH]c1cc(OCc3cn(C/C=C/c4ccccc4)nn3)ccc12`: the 50% inhibitory concentration (IC50) in the series on Plasmodium falciparum [1] was 260 nM; with HepG2, 9670 nM; in the series with Plasmodium falciparum [3] it was 1090 nM. In addition, the selectivity ratio in series [2] was found to be 37.
For `COc1ccc2c3ccnc(C)c3n(Cc3cn(C/C=C/c4ccc(Cl)cc4)nn3)c2c1`, the IC50 in the series on Plasmodium falciparum [1] was 440 nM; with HepG2 it was above 250000 nM; in the series with Plasmodium berghei, 1120 nM; in the series on Plasmodium falciparum [3] it was 1870 nM. The selectivity ratio in series [2] is above 568.
Regarding `Cc1nccc2c1[nH]c1cc(OCc3cn(C/C=C/c4ccc(F)c(F)c4)nn3)ccc12`, the half-inhibitory concentration (IC50) was 340 nM in the series on Plasmodium falciparum [1], 740 nM with HepG2 and 1010 nM with Plasmodium falciparum [3]. Besides, the selectivity ratio in series [2] worked out at 2.
`Cc1nccc2c1[nH]c1cc(OCc3cn(C/C=C/c4cccc(F)c4)nn3)ccc12`: the IC50 in the series on Plasmodium falciparum [1] was found to be 200 nM; in the series on HepG2, 3110 nM; with Plasmodium falciparum [3] it was 1190 nM. The selectivity ratio in series [2] was 16.
Taken in the same sequence, the figures for `COc1ccc2c3ccnc(C)c3n(Cc3cn(C/C(C)=C/c4ccccc4)nn3)c2c1` were 770 nM, 11900 nM, 2820 nM and 15.
For `COc1ccc2c3ccnc(C)c3n(Cc3cn(C/C=C/c4cccc(Br)c4)nn3)c2c1`, the half-inhibitory concentration (IC50) with Plasmodium falciparum [1] was 560 nM; with HepG2, 56600 nM; with Plasmodium berghei, 1100 nM; in the series with Plasmodium falciparum [3], 2260 nM. The selectivity ratio in series [2] amounted to 101.
Taken in the same sequence, the figures for `COc1ccc(/C=C/Cn2cc(COc3ccc4c5ccnc(C)c5n(Cc5cn(C/C=C/c6ccc(OC)cc6)nn5)c4c3)nn2)cc1` were 130 nM, 43300 nM, 400 nM, 160 nM and 333.
As to `COc1ccc2c3ccnc(C)c3n(Cc3cn(C/C=C/c4ccc(F)cc4)nn3)c2c1`, the IC50 with Plasmodium falciparum [1] is 870 nM; in the series on HepG2, 8880 nM; in the series with Plasmodium falciparum [3] it was 2210 nM. In series [2], the selectivity ratio worked out at 10.
Taken in the same sequence, the figures for `Cc1nccc2c3ccc(OCc4cn(C/C=C/c5ccccc5)nn4)cc3n(Cc3cn(C/C=C/c4ccccc4)nn3)c12` were 560 nM, 8590 nM, 1590 nM and 15.
In the case of `Cc1nccc2c3ccc(OCc4cn(C/C=C/c5cccc(F)c5)nn4)cc3n(Cc3cn(C/C=C/c4cccc(F)c4)nn3)c12`, the results for the IC50 in the series on HepG2 and in the series on Plasmodium falciparum [3] were 6010 nM and 3230 nM, respectively. In series [2], the selectivity ratio was found to be 2.
As to `COc1ccc2c3ccnc(C)c3n(Cc3cn(C/C=C/c4ccccc4)nn3)c2c1`, the IC50 in the series with Plasmodium falciparum [1] was 1260 nM; in the series on HepG2 it was above 250000 nM; in the series with Plasmodium berghei, 2620 nM; with Plasmodium falciparum [3], 23800 nM. For the same molecule, the selectivity ratio in series [2] is above 198.
For `COc1ccc2c3ccnc(C)c3n(Cc3cn(C/C=C/c4cccc(F)c4)nn3)c2c1`, the 50% inhibitory concentration (IC50) in the series on Plasmodium falciparum [1] was 890 nM; with HepG2, above 250000 nM; in the series with Plasmodium falciparum [3] it was 2700 nM. Moreover, in series [2], the selectivity ratio is above 281.
Turning to `Cc1nccc2c1[nH]c1cc(OCc3cn(C/C=C/c4ccc5c(c4)OCO5)nn3)ccc12`, the IC50 with Plasmodium falciparum [1] stood at 160 nM; in the series with HepG2, 5600 nM; with Plasmodium falciparum [3] it was 470 nM. In addition, the selectivity ratio in series [2] turned out to be 35.
Regarding `Cc1nccc2c1[nH]c1cc(OCc3cn(C/C=C/c4ccc(Cl)cc4)nn3)ccc12`, the concentration for half-maximal inhibition (IC50) in the series with Plasmodium falciparum [1] turned out to be 150 nM; with HepG2, 8800 nM; in the series with Plasmodium falciparum [3], 690 nM. Besides, in series [2], the selectivity ratio was 59.
Regarding `Cc1nccc2c3ccc(OCc4cn(C/C=C/c5ccc(F)cc5)nn4)cc3n(Cc3cn(C/C=C/c4ccc(F)cc4)nn3)c12`, the IC50 in the series with Plasmodium falciparum [1] came out at 620 nM; in the series with HepG2, 12100 nM; in the series on Plasmodium falciparum [3], 8000 nM. Besides, in series [2], the selectivity ratio amounted to 20.
On the same counts, the results for `Cc1nccc2c3ccc(OCc4cn(C/C=C/c5ccc(F)c(F)c5)nn4)cc3n(Cc3cn(C/C=C/c4ccc(F)c(F)c4)nn3)c12` are 1070 nM, 11000 nM, 17900 nM and 6.
On the same counts, the results for `COc1ccc(/C=C/Cn2cc(COc3ccc4c(c3)[nH]c3c(C)nccc34)nn2)cc1` are 430 nM, 5370 nM, 690 nM and 12.
Take `COc1ccc2c3ccnc(C)c3n(Cc3cn(C/C=C/c4ccc(F)c(F)c4)nn3)c2c1`: the IC50 is 650 nM in the series on Plasmodium falciparum [1], 9750 nM with HepG2 and 2550 nM with Plasmodium falciparum [3]. The selectivity ratio in series [2] amounted to 15.
On the same counts, the results for `Cc1nccc2c1[nH]c1cc(OCc3cn(C/C=C/c4cccc(Br)c4)nn3)ccc12` are 130 nM, 2860 nM, 460 nM and 22.
Taken in the same sequence, the figures for `COc1ccc(/C=C/Cn2cc(Cn3c4cc(OC)ccc4c4ccnc(C)c43)nn2)cc1` were 610 nM, above 120000 nM, 16600 nM and above 197.
Taken in the same sequence, the figures for `Cc1nccc2c3ccc(OCc4cn(C/C=C/c5ccc6c(c5)OCO6)nn4)cc3n(Cc3cn(C/C=C/c4ccc5c(c4)OCO5)nn3)c12` were 440 nM, 36100 nM, 650 nM and 82.
With `COc1ccc2c(c1)[nH]c1c(C)nccc12` [HARMINE], the IC50 with HepG2 was above 250000 nM; in the series on Plasmodium falciparum [3] it was above 27700 nM.

(Values after ChEMBL document CHEMBL4376849, “Harmicines - harmine and cinnamic acid hybrids as novel antiplasmodial hits” (Eur J Med Chem, 2020).)
